Data: PubChem BioAssay AID200 (DTP/NCI, 2004)
Values joined by “and” are separate entries in the source; they are usually repeats but may differ in a detail not shown here. Equal values may be shown once. Toxic doses and inconclusive results are not listed. Rule for the calls: active = survival T/C of 150% or more; inactive = T/C below 125% in these data.

Test system: B6C3F1 mice, B16 melanoma ip, median survival T/C
Test: NCI In Vivo Anticancer Drug Screen. Data for tumor model B16 Melanoma (intraperitoneal) in B6C3F1 mice
Settings: endpoint: median survival time, higher = longer survival
Summary of the method: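 Mice bearing transplanted tumor were dosed with compound or vehicle, and survival was recorded. Activity is expressed as the treated-group measurement (T) divided by the vehicle control measurement (C).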

[1] = dose: 12.5 mg/kg/injection, schedule: Q01DX009 (ip), vehicle: saline with Tween-80
[2] = dose: 25.0 mg/kg/injection, schedule: Q01DX009 (ip), vehicle: saline with Tween-80
[3] = dose: 50.0 mg/kg/injection, schedule: Q01DX009 (ip), vehicle: saline with Tween-80
[4] = dose: 50.0 mg/kg/injection, schedule: Q01DX009 (ip), vehicle: saline
[5] = dose: 100.0 mg/kg/injection, schedule: Q01DX009 (ip), vehicle: saline with Tween-80
[6] = dose: 100.0 mg/kg/injection, schedule: Q01DX009 (ip), vehicle: saline
[7] = dose: 200.0 mg/kg/injection, schedule: Q01DX009 (ip), vehicle: saline with Tween-80
[8] = dose: 6.25 mg/kg/injection, schedule: Q01DX009 (ip), vehicle: saline with Tween-80
[9] = dose: 0.75 mg/kg/injection, schedule: Q01DX009 (ip), vehicle: saline with Tween-80
[10] = dose: 1.5 mg/kg/injection, schedule: Q01DX009 (ip), vehicle: saline with Tween-80
[11] = dose: 3.0 mg/kg/injection, schedule: Q01DX009 (ip), vehicle: saline with Tween-80

Measured: T/C

CC1(CO)C(O)CCC2(C)C1CCC1CC3CC12CCC3(O)CO (centres undefined)
active: dose: 40.0 mg/kg/injection, schedule: Q03HX027 (ip), vehicle: saline with Tween-80 187 % of control and 202 % of control | dose: 50.0 mg/kg/injection, schedule: Q01DX009 (ip), vehicle: distilled water + Tween-80 179 % of control | [3] 159 % of control | dose: 80.0 mg/kg/injection, schedule: Q03HX027 (ip), vehicle: saline with Tween-80 235 % of control | dose: 100.0 mg/kg/injection, schedule: Q01DX009 (ip), vehicle: distilled water + Tween-80 166 % of control | [5] 162 % of control and 173 % of control and 187 % of control | dose: 120.0 mg/kg/injection, schedule: Q01DX005 (ip), vehicle: Klucel (hydroxypropylcellulose) (HPC) 150 % of control | dose: 150.0 mg/kg/injection, schedule: Q01DX009 (ip), vehicle: saline 161 % of control | dose: 200.0 mg/kg/injection, schedule: Q01DX009 (ip), vehicle: distilled water + Tween-80 201 % of control | [7] 236 % of control | dose: 240.0 mg/kg/injection, schedule: Q01DX005 (ip), vehicle: Klucel (hydroxypropylcellulose) (HPC) 184 % of control
inactive: dose: 10.0 mg/kg/injection, schedule: Q03HX027 (ip), vehicle: saline with Tween-80 118 % of control | [1] 116 % of control and 117 % of control | [2] 119 % of control and 122 % of control | dose: 30.0 mg/kg/injection, schedule: Q01DX005 (iv), vehicle: Klucel (hydroxypropylcellulose) (HPC) 103 % of control | [4] 109 % of control | dose: 60.0 mg/kg/injection, schedule: Q01DX005 (iv), vehicle: Klucel (hydroxypropylcellulose) (HPC) 95 % of control | dose: 60.0 mg/kg/injection, schedule: Q01DX005 (oral), vehicle: Klucel (hydroxypropylcellulose) (HPC) 106 % of control | dose: 75.0 mg/kg/injection, schedule: Q01DX009 (ip), vehicle: saline 113 % of control | [6] 119 % of control | dose: 120.0 mg/kg/injection, schedule: Q01DX005 (iv), vehicle: Klucel (hydroxypropylcellulose) (HPC) 104 % of control | dose: 120.0 mg/kg/injection, schedule: Q01DX005 (oral), vehicle: Klucel (hydroxypropylcellulose) (HPC) 99 % of control | dose: 240.0 mg/kg/injection, schedule: Q01DX005 (oral), vehicle: Klucel (hydroxypropylcellulose) (HPC) 104 % of control | dose: 480.0 mg/kg/injection, schedule: Q01DX005 (oral), vehicle: Klucel (hydroxypropylcellulose) (HPC) 100 % of control

Nc1nc(N)c2cc(CNc3ccc(C(=O)NC(CC(=O)O)CC(=O)O)cc3)ccc2n1
inactive: dose: 0.04 mg/kg/injection, schedule: Q01DX009 (ip), vehicle: Klucel (hydroxypropylcellulose) (HPC) 87 % of control | dose: 0.09 mg/kg/injection, schedule: Q01DX009 (ip), vehicle: Klucel (hydroxypropylcellulose) (HPC) 89 % of control | dose: 0.39 mg/kg/injection, schedule: Q01DX009 (ip), vehicle: Klucel (hydroxypropylcellulose) (HPC) 87 % of control | [8] 110 % of control | [1] 90 % of control | [2] 95 % of control | [3] 87 % of control

COc1cc(NCc2ccc3nc(N)nc(N)c3c2C)cc(OC)c1OC
inactive: dose: 2.5 mg/kg/injection, schedule: Q01DX009 (ip), vehicle: sodium bicarbonate 110 % of control | dose: 5.0 mg/kg/injection, schedule: Q01DX009 (ip), vehicle: sodium bicarbonate 118 % of control | dose: 6.25 mg/kg/injection, schedule: Q01DX009 (ip), vehicle: water 108 % of control | dose: 10.0 mg/kg/injection, schedule: Q01DX009 (ip), vehicle: sodium bicarbonate 123 % of control | dose: 12.5 mg/kg/injection, schedule: Q01DX009 (ip), vehicle: water 114 % of control | dose: 25.0 mg/kg/injection, schedule: Q01DX009 (ip), vehicle: water 121 % of control

OCCO
inactive: dose: 0.25 % in 0.5 ml injection vol, schedule: Q01DX009 (ip), vehicle: water 97 % of control | dose: 0.5 % in 0.5 ml injection vol, schedule: Q01DX009 (ip), vehicle: water 96 % of control

COC1/C=C\C=C(/C)C(=O)NC2=CC(=O)C(N)=C(CC(C)CC(OC)C(O)C(C)C=C(C)C1OC(N)=O)C2=O (centres undefined)
inactive: [9] 113 % of control | [10] 113 % of control | [11] 116 % of control

CC1=CC(=O)C(O)C2(C)C1CC1OC(=O)C(OC(=O)CC(C)(C)O)C3C(C)C(O)C4(O)OCC13C42 (centres undefined)
inactive: dose: 0.25 mg/kg/injection, schedule: Q01DX009 (ip), vehicle: saline + alcohol 108 % of control | dose: 0.5 mg/kg/injection, schedule: Q01DX009 (ip), vehicle: saline + alcohol 116 % of control | dose: 1.0 mg/kg/injection, schedule: Q01DX009 (ip), vehicle: saline + alcohol 110 % of control | dose: 2.0 mg/kg/injection, schedule: Q01DX009 (ip), vehicle: saline + alcohol 116 % of control | dose: 4.0 mg/kg/injection, schedule: Q01DX009 (ip), vehicle: saline + alcohol 120 % of control

NC(Cc1ccc(O)cc1)C(=O)O (centres undefined)
inactive: [1] 102 % of control | [2] 113 % of control | dose: 50.0 mg/kg/injection, schedule: Q01DX009 (ip), vehicle: Klucel (hydroxypropylcellulose) (HPC) 120 % of control | [3] 113 % of control | dose: 100.0 mg/kg/injection, schedule: Q01DX009 (ip), vehicle: Klucel (hydroxypropylcellulose) (HPC) 99 % of control | [5] 103 % of control | dose: 200.0 mg/kg/injection, schedule: Q01DX009 (ip), vehicle: Klucel (hydroxypropylcellulose) (HPC) 109 % of control | [7] 98 % of control | dose: 400.0 mg/kg/injection, schedule: Q01DX009 (ip), vehicle: Klucel (hydroxypropylcellulose) (HPC) 96 % of control | dose: 400.0 mg/kg/injection, schedule: Q01DX009 (ip), vehicle: saline with Tween-80 103 % of control

O=C(O)CCCc1ccc(N(CCCl)CCCl)cc1
inactive: dose: 1.56 mg/kg/injection, schedule: Q01DX009 (ip), vehicle: saline with Tween-80 113 % of control and 106 % of control | dose: 3.13 mg/kg/injection, schedule: Q01DX009 (ip), vehicle: saline with Tween-80 119 % of control and 103 % of control | [8] 118 % of control | [1] 98 % of control and 106 % of control

CCC1CN2CCC3(C(=O)Nc4ccccc43)C2CC1/C(=C/OC)C(=O)OC (centres undefined)
inactive: [8] 90 % of control | [1] 108 % of control | [2] 93 % of control | [3] 93 % of control

C=C1C(=O)C2=CC1CCC(=O)C1(C)CCC(OC(C)=O)C(C)(C)C1CC2O (centres undefined)
inactive: dose: 1.88 mg/kg/injection, schedule: Q01DX009 (ip), vehicle: Klucel (hydroxypropylcellulose) (HPC) 96 % of control | dose: 3.75 mg/kg/injection, schedule: Q01DX009 (ip), vehicle: Klucel (hydroxypropylcellulose) (HPC) 104 % of control and 106 % of control | dose: 7.5 mg/kg/injection, schedule: Q01DX009 (ip), vehicle: Klucel (hydroxypropylcellulose) (HPC) 111 % of control and 89 % of control | dose: 15.0 mg/kg/injection, schedule: Q01DX009 (ip), vehicle: Klucel (hydroxypropylcellulose) (HPC) 114 % of control and 100 % of control | dose: 30.0 mg/kg/injection, schedule: Q01DX009 (ip), vehicle: Klucel (hydroxypropylcellulose) (HPC) 118 % of control and 104 % of control

Nc1ncc(C2OC(CO)C(O)C2O)c(=O)[nH]1 (centres undefined)
active: [4] 150 % of control | [6] 154 % of control

CCCOC(=O)c1nc(N(CC2CCCCC2)C(=O)NC)sc1/N=C/c1ccccc1
inactive: dose: 9.0 mg/kg/injection, schedule: Q01DX009 (ip), vehicle: saline with Tween-80 96 % of control | dose: 18.0 mg/kg/injection, schedule: Q01DX009 (ip), vehicle: saline with Tween-80 86 % of control | dose: 36.0 mg/kg/injection, schedule: Q01DX009 (ip), vehicle: saline with Tween-80 86 % of control

COc1cc(/C=C/[N+](=O)[O-])cc(Br)c1OC
inactive: [9] 102 % of control | [10] 112 % of control | [11] 98 % of control | dose: 6.0 mg/kg/injection, schedule: Q01DX009 (ip), vehicle: saline with Tween-80 97 % of control | [8] 91 % of control | dose: 12.0 mg/kg/injection, schedule: Q01DX009 (ip), vehicle: saline with Tween-80 93 % of control

C=CCSc1ncnc2c1ncn2C1OC(CO)C(O)C1O (centres undefined)
inactive: dose: 37.5 mg/kg/injection, schedule: Q01DX009 (ip), vehicle: saline with Tween-80 102 % of control | dose: 75.0 mg/kg/injection, schedule: Q01DX009 (ip), vehicle: saline with Tween-80 90 % of control | dose: 150.0 mg/kg/injection, schedule: Q01DX009 (ip), vehicle: saline with Tween-80 97 % of control
